These results are taken from patent US10912770B2, “Targeting AMP deaminase 2 for ameliorating craving for sugar and other substances” (The Regents of the University of Colorado, a body coporate, priority 2016, dated 2021).

“Also recorded” adds a separate entry of the source.

One test has as its target human AMPDA. As to conditions: cited from earlier work; for Ki: human AMPDA, read-out: AMPDA K(i).
The target in a further test is T1, AMPD2 (Mus musculus, UniProt Q9DBT5).
T1 construct: from tissue
T1 sequence (Q9DBT5 1-824): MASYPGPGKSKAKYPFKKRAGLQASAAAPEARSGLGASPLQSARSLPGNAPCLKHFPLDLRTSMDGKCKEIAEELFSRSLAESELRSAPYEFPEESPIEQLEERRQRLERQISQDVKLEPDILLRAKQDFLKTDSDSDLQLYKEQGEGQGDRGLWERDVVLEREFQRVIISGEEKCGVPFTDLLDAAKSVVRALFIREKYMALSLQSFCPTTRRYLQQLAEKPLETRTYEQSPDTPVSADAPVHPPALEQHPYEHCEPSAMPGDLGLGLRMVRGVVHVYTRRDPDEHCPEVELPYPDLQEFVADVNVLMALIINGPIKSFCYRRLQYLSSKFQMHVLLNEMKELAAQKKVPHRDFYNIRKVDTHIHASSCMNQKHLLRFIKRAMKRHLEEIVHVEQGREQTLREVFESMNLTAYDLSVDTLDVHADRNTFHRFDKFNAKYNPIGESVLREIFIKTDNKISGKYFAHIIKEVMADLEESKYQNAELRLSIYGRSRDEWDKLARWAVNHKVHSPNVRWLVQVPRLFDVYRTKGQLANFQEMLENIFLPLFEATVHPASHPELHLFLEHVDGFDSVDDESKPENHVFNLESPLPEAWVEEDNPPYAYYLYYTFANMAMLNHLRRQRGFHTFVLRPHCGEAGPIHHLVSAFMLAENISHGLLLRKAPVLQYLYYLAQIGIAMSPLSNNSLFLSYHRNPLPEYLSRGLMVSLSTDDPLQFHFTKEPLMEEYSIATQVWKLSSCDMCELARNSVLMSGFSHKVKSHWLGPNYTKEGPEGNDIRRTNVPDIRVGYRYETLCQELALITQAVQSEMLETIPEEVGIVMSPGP
Description: AMPD2 activity in the liver after oral pan AMPD inhibitor. It is filed as in vivo. The conditions noted are these: wild type mice, gavage 25 mg/kg twice daily (50 mg/kg/d). The procedure: (§1) Mice were administered the racemate of the active compound 1 (FIG. 2 in the paper by Admyre et al Chem Biol 2014; 21:1488-1496) by gavage at a dose of 25 mg/kg twice daily beginning two days before administering fructose (15%) in the drinking water.
(§2) The benefit from blocking AMPD2 on craving is not limited to mice genetically lacking AMPD2. Recently an inhibitor for AMPD2 was published, and we made a racemate of the active compound 1 (FIG. 2 in the paper by Admyre et al Chem Biol 2014; 21:1488-1496).

A further test relates to wild type mice. As to the kind of experiment: Fructose craving: intake of fructose (15%) drinking water. The class given is in vivo. The procedure:
as §1, §2

The next test concerns the target T2, adenosine deaminase (Homo sapiens, UniProt P00813).
T2 sequence (P00813 1-363): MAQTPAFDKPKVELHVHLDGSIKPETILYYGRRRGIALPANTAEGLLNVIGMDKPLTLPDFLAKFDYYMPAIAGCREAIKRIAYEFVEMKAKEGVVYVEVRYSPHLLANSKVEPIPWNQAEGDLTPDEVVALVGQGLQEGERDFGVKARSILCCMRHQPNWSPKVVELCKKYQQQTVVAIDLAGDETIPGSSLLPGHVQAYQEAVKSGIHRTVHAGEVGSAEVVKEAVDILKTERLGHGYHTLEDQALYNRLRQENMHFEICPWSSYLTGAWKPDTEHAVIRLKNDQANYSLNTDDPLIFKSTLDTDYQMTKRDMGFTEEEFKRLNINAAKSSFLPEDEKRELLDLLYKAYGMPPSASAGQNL
As to conditions: cited from earlier work.

For `CCc1cc(CCn2cnc3c2N=CNCC3O)cc(C(=O)O)c1` (centres unmarked) [43 g, 3-[2-(3-carboxy-5-ethylphenyl)ethyl]-3,6,7,8-tetrahydroimidazo[4,5-d][1,3]diazepin-8-ol], at human AMPDA, the Ki is 60 nM.
Turning to `CC(NCc1ccc(-c2ccc(C(=O)O)cn2)cc1)c1cccc2ccncc12` (racemic) [racemate of the active compound 1, 6-(4-((1-(Isoquinolin-8-yl)ethylamino)methyl)phenyl)nicotinic acid], at AMPD2, the “AMPD2 activity in the liver” value is listed as “significantly block AMPD2 activity in the liver; also recorded: inhibition of AMPD2 activity in the liver”. For the same compound, the craving for fructose result with wild type mice (gavage 25 mg/kg twice daily (50 mg/kg/d), fructose (15%) water) was “completely blocked the craving for fructose”. In addition, in the test on wild type mice (gavage 25 mg/kg twice daily from two days before fructose (15%) in drinking water), the “intake of fructose-containing water” value is “significantly reduce the intake of fructose-containing water”.
Regarding “3-[2-(3-carboxy-4-bromo-5,6,7,8-tetrahydronaphthyl)ethyl]-3,6,7,8-tetrahydroimidazo[4,5-d][1,3]diazepin-8-ol [Compound 24b]”, the enzyme specificity entry on adenosine deaminase is “without loss in the enzyme specificity”. Moreover, in the test on human AMPDA, the “enhancement in AMPDA inhibitory potency” value is 10- to 250 fold, the “potency (K(i)) lower than the Km for the substrate AMP” value was 10(5) fold and the Ki was 2 nM.
